Fold change (FC) and inhibition data for three molecules are collected here from ChEMBL document CHEMBL5653631, “A Potent and Selective ULK1 Inhibitor Suppresses Autophagy and Sensitizes Cancer Cells to Nutrient Stress” (iScience, 2018).

Assay [1] addresses Cyclin-dependent kinase 6 (Homo sapiens) (UniProt Q00534). Description: Inhibition of human recombinant CDK6 at 40 nM related to control ULK1.
For assay [2], the target named is T1, Discoidin domain-containing receptor 2 (Homo sapiens) (UniProt Q16832).
T1 sequence (whole entry): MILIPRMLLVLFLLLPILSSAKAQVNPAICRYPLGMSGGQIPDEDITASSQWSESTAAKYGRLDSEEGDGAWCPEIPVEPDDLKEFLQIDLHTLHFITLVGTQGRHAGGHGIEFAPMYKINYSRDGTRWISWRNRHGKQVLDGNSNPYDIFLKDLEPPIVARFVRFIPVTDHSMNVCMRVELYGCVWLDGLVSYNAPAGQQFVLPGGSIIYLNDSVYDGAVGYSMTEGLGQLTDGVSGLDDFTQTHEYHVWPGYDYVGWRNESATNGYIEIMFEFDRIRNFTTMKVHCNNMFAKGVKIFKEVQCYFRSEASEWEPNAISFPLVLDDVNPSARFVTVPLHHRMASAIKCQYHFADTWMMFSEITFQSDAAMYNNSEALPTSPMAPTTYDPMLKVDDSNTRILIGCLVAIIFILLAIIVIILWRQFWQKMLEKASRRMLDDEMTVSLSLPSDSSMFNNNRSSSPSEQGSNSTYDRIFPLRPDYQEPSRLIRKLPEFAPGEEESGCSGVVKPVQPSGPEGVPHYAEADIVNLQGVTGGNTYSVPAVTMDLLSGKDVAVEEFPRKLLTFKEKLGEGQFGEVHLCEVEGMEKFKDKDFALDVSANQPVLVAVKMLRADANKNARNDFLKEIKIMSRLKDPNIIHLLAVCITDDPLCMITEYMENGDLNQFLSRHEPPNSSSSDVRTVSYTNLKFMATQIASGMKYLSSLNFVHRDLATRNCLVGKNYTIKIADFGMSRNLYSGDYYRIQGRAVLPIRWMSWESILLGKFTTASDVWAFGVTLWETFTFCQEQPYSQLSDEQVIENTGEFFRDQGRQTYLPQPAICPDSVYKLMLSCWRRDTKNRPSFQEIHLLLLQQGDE
Briefly: Inhibition of human recombinant DDR2 at 40 nM related to control ULK1.

The target in assay [3] is T2, Serine/threonine-protein kinase Nek9 (Homo sapiens) (UniProt Q8TD19).
T2 sequence (whole entry): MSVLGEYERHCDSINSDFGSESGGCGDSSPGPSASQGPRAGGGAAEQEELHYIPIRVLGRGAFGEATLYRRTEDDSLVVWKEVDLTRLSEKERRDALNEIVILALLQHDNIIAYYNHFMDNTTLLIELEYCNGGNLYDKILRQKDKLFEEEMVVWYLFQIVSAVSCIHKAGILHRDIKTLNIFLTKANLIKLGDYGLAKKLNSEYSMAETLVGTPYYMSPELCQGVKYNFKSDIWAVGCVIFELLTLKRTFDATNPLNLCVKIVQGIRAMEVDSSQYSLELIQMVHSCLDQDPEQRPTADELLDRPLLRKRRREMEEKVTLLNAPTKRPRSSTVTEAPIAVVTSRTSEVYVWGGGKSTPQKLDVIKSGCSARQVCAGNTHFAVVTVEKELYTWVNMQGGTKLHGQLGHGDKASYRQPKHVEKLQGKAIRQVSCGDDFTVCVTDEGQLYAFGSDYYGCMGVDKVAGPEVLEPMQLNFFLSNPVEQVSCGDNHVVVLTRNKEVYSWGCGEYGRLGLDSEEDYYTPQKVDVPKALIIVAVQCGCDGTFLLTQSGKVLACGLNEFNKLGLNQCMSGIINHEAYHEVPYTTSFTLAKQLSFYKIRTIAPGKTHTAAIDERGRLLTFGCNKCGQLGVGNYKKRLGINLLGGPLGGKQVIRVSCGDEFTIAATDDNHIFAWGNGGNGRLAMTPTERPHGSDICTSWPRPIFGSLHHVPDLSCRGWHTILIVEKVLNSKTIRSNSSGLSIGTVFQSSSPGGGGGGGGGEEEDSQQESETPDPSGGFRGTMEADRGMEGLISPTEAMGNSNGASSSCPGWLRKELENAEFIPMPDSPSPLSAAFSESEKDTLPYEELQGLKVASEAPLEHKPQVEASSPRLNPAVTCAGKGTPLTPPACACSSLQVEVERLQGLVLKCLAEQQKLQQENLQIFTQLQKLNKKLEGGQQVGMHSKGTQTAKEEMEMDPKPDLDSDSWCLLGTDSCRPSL
Briefly: Inhibition of human recombinant NEK9 at 500 nM in presence of ATP by radiometric assay relative to control.

Assay [4] concerns the target Serine/threonine-protein kinase PLK1 (Homo sapiens) (UniProt P53350). Description: Inhibition of human recombinant PLK1 at 500 nM in presence of ATP by radiometric assay relative to control.
For assay [5], the target named is Myosin light chain kinase, smooth muscle (Homo sapiens) (UniProt Q15746). Briefly: Inhibition of human recombinant smMLCK at 500 nM in presence of ATP by radiometric assay relative to control.
The target in assay [6] is T3, Serine/threonine-protein kinase tousled-like 1 (Homo sapiens) (UniProt Q9UKI8).
T3 sequence (whole entry): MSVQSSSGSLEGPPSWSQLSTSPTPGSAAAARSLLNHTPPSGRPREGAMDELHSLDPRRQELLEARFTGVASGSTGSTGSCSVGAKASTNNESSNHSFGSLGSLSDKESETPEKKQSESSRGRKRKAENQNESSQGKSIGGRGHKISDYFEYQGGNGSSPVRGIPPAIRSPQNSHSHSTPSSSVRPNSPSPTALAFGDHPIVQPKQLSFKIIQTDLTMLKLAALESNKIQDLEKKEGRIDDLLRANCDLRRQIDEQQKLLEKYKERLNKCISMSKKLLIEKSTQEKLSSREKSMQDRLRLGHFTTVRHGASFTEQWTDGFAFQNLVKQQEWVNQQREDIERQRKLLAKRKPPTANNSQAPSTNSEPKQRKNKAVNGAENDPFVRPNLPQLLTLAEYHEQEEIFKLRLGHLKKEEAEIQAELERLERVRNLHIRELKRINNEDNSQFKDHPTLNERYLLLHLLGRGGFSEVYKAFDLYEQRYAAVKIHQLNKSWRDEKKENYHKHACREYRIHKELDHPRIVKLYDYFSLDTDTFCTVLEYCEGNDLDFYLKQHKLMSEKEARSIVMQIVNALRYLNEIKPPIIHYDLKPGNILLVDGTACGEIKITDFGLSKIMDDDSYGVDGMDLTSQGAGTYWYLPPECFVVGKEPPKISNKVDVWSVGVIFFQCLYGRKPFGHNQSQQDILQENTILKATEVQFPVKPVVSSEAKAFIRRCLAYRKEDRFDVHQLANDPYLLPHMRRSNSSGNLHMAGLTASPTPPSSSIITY
Description: Inhibition of human recombinant TLK1 at 500 nM in presence of ATP by radiometric assay relative to control.

In assay [7] the target is Rho-associated protein kinase 1 (Homo sapiens) (UniProt Q13464). Briefly: Inhibition of human recombinant ROCK1 at 500 nM related to control ULK1.
Assay [8] deals with Calcium/calmodulin-dependent protein kinase kinase 1 (Homo sapiens) (UniProt Q8N5S9). Description: Inhibition of human recombinant CaMKK1 at 15 nM in presence of ATP by radiometric assay relative to control.
Chain of Calcium/calmodulin-dependent protein kinase kinase 1 (Homo sapiens) (Q8N5S9 whole entry, looked up): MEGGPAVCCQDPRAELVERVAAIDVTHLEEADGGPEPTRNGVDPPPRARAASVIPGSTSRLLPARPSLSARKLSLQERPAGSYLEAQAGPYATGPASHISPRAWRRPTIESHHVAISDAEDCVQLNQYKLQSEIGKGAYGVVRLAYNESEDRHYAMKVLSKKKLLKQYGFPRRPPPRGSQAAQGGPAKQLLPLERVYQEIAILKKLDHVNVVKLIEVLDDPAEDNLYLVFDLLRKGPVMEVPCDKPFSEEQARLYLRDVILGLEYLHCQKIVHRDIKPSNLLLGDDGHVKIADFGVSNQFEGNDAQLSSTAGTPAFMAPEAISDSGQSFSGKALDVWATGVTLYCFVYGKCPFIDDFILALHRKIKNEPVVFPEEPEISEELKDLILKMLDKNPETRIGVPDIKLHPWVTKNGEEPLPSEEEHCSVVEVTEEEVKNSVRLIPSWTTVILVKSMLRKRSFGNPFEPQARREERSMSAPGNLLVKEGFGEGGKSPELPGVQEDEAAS

Chain of Cyclin-dependent kinase 6 (Homo sapiens) (Q00534 whole entry, the tested form may be a part): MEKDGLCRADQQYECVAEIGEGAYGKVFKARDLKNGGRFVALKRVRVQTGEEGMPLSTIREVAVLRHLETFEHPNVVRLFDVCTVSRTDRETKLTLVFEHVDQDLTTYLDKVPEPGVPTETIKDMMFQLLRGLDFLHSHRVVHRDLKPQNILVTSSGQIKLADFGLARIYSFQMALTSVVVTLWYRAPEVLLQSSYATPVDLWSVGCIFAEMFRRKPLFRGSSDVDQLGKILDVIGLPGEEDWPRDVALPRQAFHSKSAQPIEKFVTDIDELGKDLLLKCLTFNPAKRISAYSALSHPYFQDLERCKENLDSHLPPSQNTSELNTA
Chain of Rho-associated protein kinase 1 (Homo sapiens) (Q13464 2-1354 limits assumed): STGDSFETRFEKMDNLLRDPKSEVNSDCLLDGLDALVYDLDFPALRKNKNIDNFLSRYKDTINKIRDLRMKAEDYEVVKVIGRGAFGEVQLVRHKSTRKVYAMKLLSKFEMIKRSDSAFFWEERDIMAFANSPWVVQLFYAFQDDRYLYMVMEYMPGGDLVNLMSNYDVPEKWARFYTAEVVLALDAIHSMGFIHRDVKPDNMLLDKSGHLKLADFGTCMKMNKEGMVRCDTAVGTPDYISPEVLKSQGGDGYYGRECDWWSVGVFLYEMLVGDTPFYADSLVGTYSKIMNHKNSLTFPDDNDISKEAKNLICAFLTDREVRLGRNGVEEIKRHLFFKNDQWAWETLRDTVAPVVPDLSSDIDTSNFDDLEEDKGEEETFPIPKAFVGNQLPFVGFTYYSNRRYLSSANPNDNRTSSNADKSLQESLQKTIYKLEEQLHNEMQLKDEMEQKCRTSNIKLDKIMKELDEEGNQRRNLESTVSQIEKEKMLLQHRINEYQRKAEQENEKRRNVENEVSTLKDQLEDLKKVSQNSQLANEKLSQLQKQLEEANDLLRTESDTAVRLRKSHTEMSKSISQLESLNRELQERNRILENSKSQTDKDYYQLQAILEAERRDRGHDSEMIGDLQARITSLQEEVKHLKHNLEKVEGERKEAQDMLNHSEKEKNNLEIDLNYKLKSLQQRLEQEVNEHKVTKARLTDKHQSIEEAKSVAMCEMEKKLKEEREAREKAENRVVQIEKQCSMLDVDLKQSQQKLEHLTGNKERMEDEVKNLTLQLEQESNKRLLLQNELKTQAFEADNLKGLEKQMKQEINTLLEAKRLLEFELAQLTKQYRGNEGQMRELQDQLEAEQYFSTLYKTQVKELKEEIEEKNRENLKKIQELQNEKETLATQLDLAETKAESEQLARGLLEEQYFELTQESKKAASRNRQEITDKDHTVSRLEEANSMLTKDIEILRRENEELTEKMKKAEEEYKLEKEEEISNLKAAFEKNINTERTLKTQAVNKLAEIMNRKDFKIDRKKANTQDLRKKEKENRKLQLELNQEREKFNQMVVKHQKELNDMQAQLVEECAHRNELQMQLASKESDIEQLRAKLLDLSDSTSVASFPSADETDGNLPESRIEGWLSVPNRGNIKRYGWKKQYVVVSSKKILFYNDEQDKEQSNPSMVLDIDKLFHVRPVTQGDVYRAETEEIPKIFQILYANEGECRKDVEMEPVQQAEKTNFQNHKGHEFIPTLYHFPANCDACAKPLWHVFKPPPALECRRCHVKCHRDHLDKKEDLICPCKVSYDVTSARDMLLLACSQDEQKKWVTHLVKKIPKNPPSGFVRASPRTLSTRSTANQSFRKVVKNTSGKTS
Chain of Serine/threonine-protein kinase PLK1 (Homo sapiens) (P53350 whole entry): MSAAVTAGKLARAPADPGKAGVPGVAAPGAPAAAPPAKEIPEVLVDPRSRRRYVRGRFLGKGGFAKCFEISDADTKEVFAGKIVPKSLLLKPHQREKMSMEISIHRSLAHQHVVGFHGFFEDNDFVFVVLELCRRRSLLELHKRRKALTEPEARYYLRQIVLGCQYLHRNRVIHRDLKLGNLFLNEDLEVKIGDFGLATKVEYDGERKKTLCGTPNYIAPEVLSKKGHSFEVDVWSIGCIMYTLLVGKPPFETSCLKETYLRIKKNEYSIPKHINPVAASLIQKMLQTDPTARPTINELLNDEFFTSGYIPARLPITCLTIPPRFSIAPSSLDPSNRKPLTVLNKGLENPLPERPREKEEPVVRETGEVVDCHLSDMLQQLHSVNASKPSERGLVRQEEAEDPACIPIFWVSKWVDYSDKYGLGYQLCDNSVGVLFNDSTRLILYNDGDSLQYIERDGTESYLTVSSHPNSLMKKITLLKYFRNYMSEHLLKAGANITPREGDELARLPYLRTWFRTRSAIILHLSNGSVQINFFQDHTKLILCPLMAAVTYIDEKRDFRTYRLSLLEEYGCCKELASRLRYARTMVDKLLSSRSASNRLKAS
Chain of Myosin light chain kinase, smooth muscle (Homo sapiens) (Q15746 whole entry): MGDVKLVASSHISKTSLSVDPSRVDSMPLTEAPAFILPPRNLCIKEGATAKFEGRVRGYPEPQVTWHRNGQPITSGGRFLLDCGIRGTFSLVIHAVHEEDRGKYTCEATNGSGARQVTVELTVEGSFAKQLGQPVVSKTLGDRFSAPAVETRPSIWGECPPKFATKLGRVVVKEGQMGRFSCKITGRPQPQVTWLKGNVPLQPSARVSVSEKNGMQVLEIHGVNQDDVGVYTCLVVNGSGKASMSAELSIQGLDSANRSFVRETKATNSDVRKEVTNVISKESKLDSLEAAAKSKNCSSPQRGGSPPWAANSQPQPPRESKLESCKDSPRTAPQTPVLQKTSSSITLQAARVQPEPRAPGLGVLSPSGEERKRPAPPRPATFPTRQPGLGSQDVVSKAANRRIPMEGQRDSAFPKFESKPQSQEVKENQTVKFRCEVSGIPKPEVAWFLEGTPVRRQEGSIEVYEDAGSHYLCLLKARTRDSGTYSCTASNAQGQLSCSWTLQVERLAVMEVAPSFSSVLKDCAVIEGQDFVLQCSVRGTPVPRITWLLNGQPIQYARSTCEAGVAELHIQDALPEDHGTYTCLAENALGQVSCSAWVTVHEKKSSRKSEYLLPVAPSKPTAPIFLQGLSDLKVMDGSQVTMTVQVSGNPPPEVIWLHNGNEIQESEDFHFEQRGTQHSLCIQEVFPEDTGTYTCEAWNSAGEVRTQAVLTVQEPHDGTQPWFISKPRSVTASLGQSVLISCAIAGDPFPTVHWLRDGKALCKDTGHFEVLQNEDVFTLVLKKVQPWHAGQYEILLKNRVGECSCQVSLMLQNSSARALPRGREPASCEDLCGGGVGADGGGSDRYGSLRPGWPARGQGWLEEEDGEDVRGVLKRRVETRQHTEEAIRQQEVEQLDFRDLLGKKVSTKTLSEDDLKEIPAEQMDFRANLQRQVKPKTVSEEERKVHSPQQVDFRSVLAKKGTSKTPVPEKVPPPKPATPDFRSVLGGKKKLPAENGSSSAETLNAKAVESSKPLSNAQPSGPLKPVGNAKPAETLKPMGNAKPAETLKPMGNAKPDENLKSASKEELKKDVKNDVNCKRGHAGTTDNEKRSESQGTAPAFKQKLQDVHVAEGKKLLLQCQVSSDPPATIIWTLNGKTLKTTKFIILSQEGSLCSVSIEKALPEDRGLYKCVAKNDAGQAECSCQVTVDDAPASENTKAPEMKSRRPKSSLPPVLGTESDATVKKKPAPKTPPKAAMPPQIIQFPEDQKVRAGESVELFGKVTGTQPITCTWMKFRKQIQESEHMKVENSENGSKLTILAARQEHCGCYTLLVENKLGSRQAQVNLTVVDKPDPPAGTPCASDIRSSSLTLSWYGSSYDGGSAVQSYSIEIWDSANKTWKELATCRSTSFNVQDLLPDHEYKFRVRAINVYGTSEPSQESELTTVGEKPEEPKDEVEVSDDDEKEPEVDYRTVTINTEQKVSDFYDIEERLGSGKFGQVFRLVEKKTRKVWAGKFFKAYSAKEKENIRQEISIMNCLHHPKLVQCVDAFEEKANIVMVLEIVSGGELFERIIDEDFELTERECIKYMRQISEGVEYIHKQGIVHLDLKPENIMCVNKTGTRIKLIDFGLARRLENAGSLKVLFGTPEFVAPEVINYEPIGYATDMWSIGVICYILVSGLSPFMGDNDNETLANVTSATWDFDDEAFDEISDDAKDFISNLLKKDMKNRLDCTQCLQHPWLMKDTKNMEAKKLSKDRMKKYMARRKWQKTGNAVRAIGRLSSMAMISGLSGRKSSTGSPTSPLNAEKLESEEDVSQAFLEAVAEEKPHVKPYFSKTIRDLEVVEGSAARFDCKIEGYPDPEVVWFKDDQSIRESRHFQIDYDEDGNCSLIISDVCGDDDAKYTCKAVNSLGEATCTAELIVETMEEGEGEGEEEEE

With `O=C(N[C@@H](C1CC1)C(F)(F)F)c1cc(-c2cnn3cc(-c4ccc(F)cc4)cnc23)cs1`, the fold change (FC) turned out to be 0.04 in assay [1] and 0 in assay [2].

As to `CNC(=O)c1ccccc1Oc1nc(Nc2cc(OC)c(OC)c(OC)c2)ncc1Br`, the inhibition amounted to 0% in assay [3], 0% in assay [4], 5% in assay [5] and 0% in assay [6]. For the same molecule, the fold change (FC) in assay [7] turned out to be 0.

On to `CC(C)[C@H](NC(=O)c1cc(-c2cnn3cc(-c4ccc(OCCN5CCCCC5)cc4)cnc23)cs1)C(F)(F)F`, for which the inhibition in assay [8] stood at 0%.

The term inhibition denotes the change of the read-out against control, counted positive when it falls.
